This passage reports mutagenic call results from PubChem BioAssay AID1259407 (Chemical Carcinogenesis Research Information System (CCRIS), 2018).

This data set concerns CCRIS mutagenicity, Ames/micronucleus/aberration tests. Nature of the data set: CCRIS mutagenicity studies.
[1] abbreviates: Test System: AMES SALMONELLA TYPHIMURIUM, Strain/Indicator: TA100, Metabolic Activation: NONE, Method: STANDARD PLATE.
Where [2] appears, read: Test System: AMES SALMONELLA TYPHIMURIUM, Strain/Indicator: TA100, Metabolic Activation: RAT, LIVER, S-9, AROCLOR 1254, Method: STANDARD PLATE.
[3] abbreviates: Test System: AMES SALMONELLA TYPHIMURIUM, Strain/Indicator: TA98, Metabolic Activation: NONE, Method: STANDARD PLATE.

Structures are written as SMILES. Calls of active or inactive are those of the source. The rule behind the calls is not given here.

Turning to `C[C@]12CCC(=O)C=C1CC[C@@H]1[C@@H]2CC[C@]2(C)C(=O)CC[C@@H]12`, the mutagenic call reads like this: (End Point: In vivo micronucleus, Test System: Micronucleated bone marrow polychromatic erythrocytes, Species: Rat, Strain/Sex: F344/N / Male, Route: Oral) “inactive; negative”; (End Point: In vivo micronucleus, Test System: Micronucleated normochromatic erythrocytes in peripheral blood, Species: Mouse, Strain/Sex: B6C3F1/Female, Route: Oral) “inactive; negative. (the response was judged equivocal based on a statistically significan”; (End Point: In vivo micronucleus, Test System: Micronucleated normochromatic erythrocytes in peripheral blood, Species: Mouse, Strain/Sex: B6C3F1/Male, Route: Oral) “inactive; negative”; (Test System: Ames Salmonella typhimurium, Strain/Indicator: TA97, Metabolic Activation: Hamster, Liver, S-9, Aroclor 1254 (10%), Method: Preincubation) “inactive; negative”; (Test System: Ames Salmonella typhimurium, Strain/Indicator: TA97, Metabolic Activation: Hamster, Liver, S-9, Aroclor 1254 (30%), Method: Preincubation) “inactive; negative”; (Test System: Ames Salmonella typhimurium, Strain/Indicator: TA97, Metabolic Activation: None, Method: Preincubation) “inactive; negative”. The mutagenic call is, setting by setting: (Test System: Ames Salmonella typhimurium, Strain/Indicator: TA97, Metabolic Activation: Rat, Liver, S-9, Aroclor 1254 (10%), Method: Preincubation) “inactive; negative”; (Test System: Ames Salmonella typhimurium, Strain/Indicator: TA97, Metabolic Activation: Rat, Liver, S-9, Aroclor 1254 (30%), Method: Preincubation) “inactive; negative”; (Test System: Ames Salmonella typhimurium, Strain/Indicator: TA98, Metabolic Activation: Hamster, Liver, S-9, Aroclor 1254 (10%), Method: Preincubation) “inactive; negative”; (Test System: Ames Salmonella typhimurium, Strain/Indicator: TA98, Metabolic Activation: Hamster, Liver, S-9, Aroclor 1254 (30%), Method: Preincubation) “inactive; negative”; (Test System: Ames Salmonella typhimurium, Strain/Indicator: TA98, Metabolic Activation: None, Method: Preincubation) “inactive; negative”; (Test System: Ames Salmonella typhimurium, Strain/Indicator: TA98, Metabolic Activation: Rat, Liver, S-9, Aroclor 1254 (10%), Method: Preincubation) “inactive; negative”. Moreover, the mutagenic call (Test System: Ames Salmonella typhimurium, Strain/Indicator: TA98, Metabolic Activation: Rat, Liver, S-9, Aroclor 1254 (30%), Method: Preincubation) is “inactive; negative”; the mutagenic call (Test System: Ames Salmonella typhimurium, Strain/Indicator: TA100, Metabolic Activation: Hamster, Liver, S-9, Aroclor 1254 (10%), Method: Preincubation) was “inactive; negative”; the mutagenic call (Test System: Ames Salmonella typhimurium, Strain/Indicator: TA100, Metabolic Activation: Hamster, Liver, S-9, Aroclor 1254 (30%), Method: Preincubation) is “inactive; negative”; the mutagenic call (Test System: Ames Salmonella typhimurium, Strain/Indicator: TA100, Metabolic Activation: None, Method: Preincubation) was “inactive; negative”; the mutagenic call (Test System: Ames Salmonella typhimurium, Strain/Indicator: TA100, Metabolic Activation: Rat, Liver, S-9, Aroclor 1254 (10%), Method: Preincubation) is “inactive; negative”; the mutagenic call (Test System: Ames Salmonella typhimurium, Strain/Indicator: TA100, Metabolic Activation: Rat, Liver, S-9, Aroclor 1254 (30%), Method: Preincubation) was “inactive; negative”. Further, the mutagenic call by setting is: (Test System: Ames Salmonella typhimurium, Strain/Indicator: TA1535, Metabolic Activation: Hamster, Liver, S-9, Aroclor 1254 (10%), Method: Preincubation) “inactive; negative”; (Test System: Ames Salmonella typhimurium, Strain/Indicator: TA1535, Metabolic Activation: Hamster, Liver, S-9, Aroclor 1254 (30%), Method: Preincubation) “inactive; negative”; (Test System: Ames Salmonella typhimurium, Strain/Indicator: TA1535, Metabolic Activation: None, Method: Preincubation) “inactive; negative”; (Test System: Ames Salmonella typhimurium, Strain/Indicator: TA1535, Metabolic Activation: Rat, Liver, S-9, Aroclor 1254 (10%), Method: Preincubation) “inactive; negative”; (Test System: Ames Salmonella typhimurium, Strain/Indicator: TA1535, Metabolic Activation: Rat, Liver, S-9, Aroclor 1254 (30%), Method: Preincubation) “inactive; negative”; (Test System: E. coli, Strain/Indicator: WP2 uvrA/pKM101, Metabolic Activation: None, Method: Preincubation) “inactive; negative”. Besides, the mutagenic call (Test System: E. coli, Strain/Indicator: WP2 uvrA/pKM101, Metabolic Activation: Rat, Liver, S-9, Aroclor 1254 (10%), Method: Preincubation) was “inactive; negative”.
Turning to `Nc1ccc(-c2ccc(-c3ccc(N)cc3)cc2)cc1`, the mutagenic call was “active; positive” (Test System: AMES SALMONELLA TYPHIMURIUM, Strain/Indicator: TA1538, Metabolic Activation: NONE, Method: STANDARD PLATE); “active; positive” (Test System: AMES SALMONELLA TYPHIMURIUM, Strain/Indicator: TA1538, Metabolic Activation: RAT, LIVER, S-9, AROCLOR 1254, Method: STANDARD PLATE); “active; positive” (Test System: CHINESE HAMSTER V-79, Strain/Indicator: V-79/6-THIOGUANINE, Metabolic Activation: NONE, Method: SUSPENSION/PLATE); “inactive; negative” (Test System: CHINESE HAMSTER V-79, Strain/Indicator: V-79/6-THIOGUANINE, Metabolic Activation: RAT, LIVER, S-9, AROCLOR 1254, Method: SUSPENSION/PLATE); “inactive; negative” (Test System: CHINESE HAMSTER V-79, Strain/Indicator: V-79/6-THIOGUANINE, Metabolic Activation: RAT, LIVER, S-9, PHENOBARBITAL AND BETA-NAPHTHOFLAVONE, Method: SUSPENSION/PLATE).
Turning to `O=[N+]([O-])c1cc2c(ccc3cc(N(CCCl)CCCl)ccc32)o1`, the mutagenic call is, setting by setting: (Test System: AMEA SALMONELLA TYPHIMURIUM, Strain/Indicator: TA100(NR), Metabolic Activation: NONE, Method: STANDARD PLATE) “active; positive”; (Test System: AMES SALMONELLA TYPHIMURIUM, Strain/Indicator: TA100(NR), Metabolic Activation: RAT, LIVER, S-9, AROCLOR 1254, Method: STANDARD PLATE) “active; positive”; under setting [1], “active; positive”; under setting [2], “active; positive”.
On to `CCOC(=O)NC`, for which the mutagenic call (Test System: MOUSE LYMPHOMA, Strain/Indicator: L5178Y (TK+/TK-), Metabolic Activation: NONE, Method: SUSPENSION/PLATE) was “inactive; negative” and the mutagenic call (Test System: MOUSE LYMPHOMA, Strain/Indicator: L5178Y (TK+/TK-), Metabolic Activation: RAT, LIVER, S-9, AROCLOR 1254, Method: SUSPENSION/PLATE) was “active; positive”.
For `CC1(C)CC[C@]2(C(=O)O)CC[C@]3(C)C(=CC[C@@H]4[C@@]5(C)C[C@H](O)[C@H](O)[C@@](C)(C(=O)O)[C@@H]5CC[C@]43C)[C@@H]2C1`, the mutagenic call runs as follows: (Test System: AMES SALMONELLA TYPHIMURIUM, Strain/Indicator: TA97, Metabolic Activation: NONE, Method: STANDARD PLATE) “inactive; negative”; (Test System: AMES SALMONELLA TYPHIMURIUM, Strain/Indicator: TA97, Metabolic Activation: RAT, LIVER, S-9, AROCLOR 1254, Method: STANDARD PLATE) “inactive; negative”; under setting [3], “inactive; negative”; (Test System: AMES SALMONELLA TYPHIMURIUM, Strain/Indicator: TA98, Metabolic Activation: RAT, LIVER, S-9, AROCLOR 1254, Method: STANDARD PLATE) “inactive; negative”; under setting [1], “inactive; negative”; under setting [2], “inactive; negative”. Also, the mutagenic call is “inactive; negative” (Test System: AMES SALMONELLA TYPHIMURIUM, Strain/Indicator: TA102, Metabolic Activation: NONE, Method: STANDARD PLATE) and “inactive; negative” (Test System: AMES SALMONELLA TYPHIMURIUM, Strain/Indicator: TA102, Metabolic Activation: RAT, LIVER, S-9, AROCLOR 1254, Method: STANDARD PLATE).
As for `Cn1c(N=[N+]=[N-])nc2ccccc21`, under setting [3], the mutagenic call is “active; positive”.
Consider `O=C1C=C2c3ccccc3-c3cccc(c32)C1=O`, for which the mutagenic call (Test System: AMES SALMONELLA TYPHIMURIUM, Strain/Indicator: TM677, Metabolic Activation: NONE, Method: PREINCUBATION) is “active; positive” and the mutagenic call (Test System: AMES SALMONELLA TYPHIMURIUM, Strain/Indicator: TM677, Metabolic Activation: RAT, LIVER, POSTMITOCHONDRIAL SUPERNATANT, AROCLOR 1254, Method: PREINCUBATION) was “active; positive”.
As for `[Br][Pt-2]([Br])([Br])([Br])([Br])[Br]`, the mutagenic call runs as follows: (Test System: AMES SALMONELLA TYPHIMURIUM, Strain/Indicator: TA98, Metabolic Activation: NONE, Method: PREINCUBATION) “inactive; negative”; (Test System: AMES SALMONELLA TYPHIMURIUM, Strain/Indicator: TA98, Metabolic Activation: RAT, LIVER, S-9, AROCLOR 1254, Method: PREINCUBATION) “inactive; negative”; (Test System: AMES SALMONELLA TYPHIMURIUM, Strain/Indicator: TA100, Metabolic Activation: NONE, Method: PREINCUBATION) “inactive; negative”; (Test System: AMES SALMONELLA TYPHIMURIUM, Strain/Indicator: TA100, Metabolic Activation: RAT, LIVER, S-9, AROCLOR 1254, Method: PREINCUBATION) “inactive; negative”.
